This is an account of results in patent US9650339B2, “Inhibitors of histone demethylases” (Gilead Sciences, Inc., priority 2013, dated 2017).

For experiment [1], the target named is T1, KDM5C (JARID1C) (Homo sapiens, UniProt P41229).
T1 construct: 2-1560; purchased BPS; host or cells: Bac (baculovirus system)
In words: Histone lysine demethylase AlphaLISA assay, KDM5C. The experiment is classed as biochemical. As to conditions: read-out: KDM5C HDME Inhibition IC50. Here is the method: Assays are performed analogously to the protocol described by PerkinElmer (Roy et al. PerkinElmer Technical Note: AlphaLISA #12, April 2011)
Enzymes are dissolved in enzyme buffer and incubated for 10 min before being added to 3% DMSO solutions of compounds in enzyme buffer. Incubated for another 10 minutes, before substrate solution is added and the reaction mixture is incubated at room temperature. 10 μL acceptor beads, suspended in Epigenetic Buffer (Perkin Elmer AL008) from stock, are added and the suspension is incubated in the dark at room temperature, before a suspension of streptavidin donor beads (Perkin Elmer 6760002) in Epigenetic Buffer is added. After incubation at room temperature in the dark the plates are read. […]
H3K4M3B: H-ART(Kme3)QTARKSTGGKAPRKQLA-NH-Biotin (Caslo, Denmark) […]
Substrate Solution: Substrate, 25 μM L-Asc, and 10 μM α-KG in Buffer A.
Background: In Alpha technology, singlet oxygen from a donor bead excites a nearby acceptor bead.

In experiment [2] the target is T2, KDM4C (JMJD2C) (Homo sapiens, UniProt Q9H3R0).
T2 sequence (Q9H3R0 1-349): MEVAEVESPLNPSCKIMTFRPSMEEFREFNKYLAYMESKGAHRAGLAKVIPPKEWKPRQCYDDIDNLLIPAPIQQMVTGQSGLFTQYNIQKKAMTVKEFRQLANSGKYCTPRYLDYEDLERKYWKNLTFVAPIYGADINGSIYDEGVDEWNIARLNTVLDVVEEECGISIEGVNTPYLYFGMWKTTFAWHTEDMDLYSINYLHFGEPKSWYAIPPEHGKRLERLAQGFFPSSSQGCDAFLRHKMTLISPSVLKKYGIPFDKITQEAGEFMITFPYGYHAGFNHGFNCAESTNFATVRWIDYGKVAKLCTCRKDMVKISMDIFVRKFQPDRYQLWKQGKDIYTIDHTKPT
In words: Histone lysine demethylase AlphaLISA assay, KDM4C. The experiment is classed as biochemical. The settings on record: read-out: KDM4C HDME Inhibition IC50. The method in brief:
(§1)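 Biotinylated methylated H3 peptides (K9, K4, K27 or K36 marks) served as substrate, with 25 μM L-Asc and 10 μM α-KG. Enzymes were preincubated 10 min, then exposed to compounds (3% DMSO solutions) 10 min; product detected by AlphaLISA acceptor and streptavidin donor beads at room temperature in dark.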

For experiment [3], the target named is T3, KDM7 (PHF8) (Homo sapiens, UniProt Q9UPP1).
T3 construct: KDM7 (PHF8); BRIC; 1-1322; Bac
In words: Histone lysine demethylase AlphaLISA assay, KDM7. The experiment is classed as biochemical. The settings on record: read-out: PHF8 HDME Inhibition IC50. The essentials: as §1

Experiment [4] has as its target T4, KDM4C (Homo sapiens, UniProt Q9H3R0).
T4 construct: Full length; host or cells: U2OS
T4 sequence (Q9H3R0 1-1056): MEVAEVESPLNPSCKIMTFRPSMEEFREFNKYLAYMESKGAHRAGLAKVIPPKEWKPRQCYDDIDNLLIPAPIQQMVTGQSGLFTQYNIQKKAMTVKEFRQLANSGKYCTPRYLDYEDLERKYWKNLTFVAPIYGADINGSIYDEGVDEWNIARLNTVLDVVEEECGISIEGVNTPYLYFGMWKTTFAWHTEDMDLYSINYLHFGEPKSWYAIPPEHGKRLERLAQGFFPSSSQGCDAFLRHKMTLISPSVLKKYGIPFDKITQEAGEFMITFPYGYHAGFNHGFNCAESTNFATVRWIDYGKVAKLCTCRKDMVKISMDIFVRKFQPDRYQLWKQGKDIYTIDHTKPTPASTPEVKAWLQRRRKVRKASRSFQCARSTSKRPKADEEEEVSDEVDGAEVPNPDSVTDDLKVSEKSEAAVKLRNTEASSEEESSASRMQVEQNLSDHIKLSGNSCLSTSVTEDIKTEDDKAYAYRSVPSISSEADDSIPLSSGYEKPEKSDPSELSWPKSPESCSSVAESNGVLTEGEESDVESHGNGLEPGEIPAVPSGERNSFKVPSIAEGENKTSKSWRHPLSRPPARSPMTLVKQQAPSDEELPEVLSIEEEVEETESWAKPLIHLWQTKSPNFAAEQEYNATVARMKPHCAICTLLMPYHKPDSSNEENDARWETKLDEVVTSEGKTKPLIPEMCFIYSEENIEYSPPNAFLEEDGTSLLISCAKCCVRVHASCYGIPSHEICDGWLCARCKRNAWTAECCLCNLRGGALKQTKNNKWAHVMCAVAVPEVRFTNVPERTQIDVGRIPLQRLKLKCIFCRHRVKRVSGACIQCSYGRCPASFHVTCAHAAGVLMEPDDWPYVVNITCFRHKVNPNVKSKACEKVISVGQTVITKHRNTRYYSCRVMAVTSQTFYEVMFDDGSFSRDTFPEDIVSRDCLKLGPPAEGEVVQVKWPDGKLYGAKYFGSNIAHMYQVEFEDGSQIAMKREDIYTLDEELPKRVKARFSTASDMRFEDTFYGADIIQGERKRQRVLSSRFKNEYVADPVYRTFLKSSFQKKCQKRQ
In words: Histone lysine demethylase immunofluorescence assay, U2OS cells transfected with KDM4C. The experiment is classed as cell-based. As to conditions: U2OS cells transfected with pCMVHA KDM4C; mark detected H3K9me3; 20 hours. The essentials:
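U2OS cells were transiently transfected with HA-tagged demethylase and reseeded after 6 h into compound-containing DMEM/10% FBS for 20 h. Cells were fixed in formaldehyde and immunostained for HA and the relevant histone methyl mark, then imaged. IC50 is based on mean mark staining in HA+ transfected cells.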

Some results are limits rather than exact numbers.

T3 sequence (Q9UPP1 37-440 limits assumed): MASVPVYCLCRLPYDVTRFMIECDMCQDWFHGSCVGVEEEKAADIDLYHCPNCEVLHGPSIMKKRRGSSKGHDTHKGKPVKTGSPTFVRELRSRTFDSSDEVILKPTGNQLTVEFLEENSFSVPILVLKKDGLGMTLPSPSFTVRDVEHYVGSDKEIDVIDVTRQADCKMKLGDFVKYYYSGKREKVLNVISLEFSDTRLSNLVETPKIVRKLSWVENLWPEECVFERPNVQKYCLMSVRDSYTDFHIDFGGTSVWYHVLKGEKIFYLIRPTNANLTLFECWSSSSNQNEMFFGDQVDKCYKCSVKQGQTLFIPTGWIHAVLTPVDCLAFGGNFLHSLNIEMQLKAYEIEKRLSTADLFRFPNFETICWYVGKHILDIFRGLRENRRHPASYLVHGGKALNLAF
T1 sequence (P41229 2-1560): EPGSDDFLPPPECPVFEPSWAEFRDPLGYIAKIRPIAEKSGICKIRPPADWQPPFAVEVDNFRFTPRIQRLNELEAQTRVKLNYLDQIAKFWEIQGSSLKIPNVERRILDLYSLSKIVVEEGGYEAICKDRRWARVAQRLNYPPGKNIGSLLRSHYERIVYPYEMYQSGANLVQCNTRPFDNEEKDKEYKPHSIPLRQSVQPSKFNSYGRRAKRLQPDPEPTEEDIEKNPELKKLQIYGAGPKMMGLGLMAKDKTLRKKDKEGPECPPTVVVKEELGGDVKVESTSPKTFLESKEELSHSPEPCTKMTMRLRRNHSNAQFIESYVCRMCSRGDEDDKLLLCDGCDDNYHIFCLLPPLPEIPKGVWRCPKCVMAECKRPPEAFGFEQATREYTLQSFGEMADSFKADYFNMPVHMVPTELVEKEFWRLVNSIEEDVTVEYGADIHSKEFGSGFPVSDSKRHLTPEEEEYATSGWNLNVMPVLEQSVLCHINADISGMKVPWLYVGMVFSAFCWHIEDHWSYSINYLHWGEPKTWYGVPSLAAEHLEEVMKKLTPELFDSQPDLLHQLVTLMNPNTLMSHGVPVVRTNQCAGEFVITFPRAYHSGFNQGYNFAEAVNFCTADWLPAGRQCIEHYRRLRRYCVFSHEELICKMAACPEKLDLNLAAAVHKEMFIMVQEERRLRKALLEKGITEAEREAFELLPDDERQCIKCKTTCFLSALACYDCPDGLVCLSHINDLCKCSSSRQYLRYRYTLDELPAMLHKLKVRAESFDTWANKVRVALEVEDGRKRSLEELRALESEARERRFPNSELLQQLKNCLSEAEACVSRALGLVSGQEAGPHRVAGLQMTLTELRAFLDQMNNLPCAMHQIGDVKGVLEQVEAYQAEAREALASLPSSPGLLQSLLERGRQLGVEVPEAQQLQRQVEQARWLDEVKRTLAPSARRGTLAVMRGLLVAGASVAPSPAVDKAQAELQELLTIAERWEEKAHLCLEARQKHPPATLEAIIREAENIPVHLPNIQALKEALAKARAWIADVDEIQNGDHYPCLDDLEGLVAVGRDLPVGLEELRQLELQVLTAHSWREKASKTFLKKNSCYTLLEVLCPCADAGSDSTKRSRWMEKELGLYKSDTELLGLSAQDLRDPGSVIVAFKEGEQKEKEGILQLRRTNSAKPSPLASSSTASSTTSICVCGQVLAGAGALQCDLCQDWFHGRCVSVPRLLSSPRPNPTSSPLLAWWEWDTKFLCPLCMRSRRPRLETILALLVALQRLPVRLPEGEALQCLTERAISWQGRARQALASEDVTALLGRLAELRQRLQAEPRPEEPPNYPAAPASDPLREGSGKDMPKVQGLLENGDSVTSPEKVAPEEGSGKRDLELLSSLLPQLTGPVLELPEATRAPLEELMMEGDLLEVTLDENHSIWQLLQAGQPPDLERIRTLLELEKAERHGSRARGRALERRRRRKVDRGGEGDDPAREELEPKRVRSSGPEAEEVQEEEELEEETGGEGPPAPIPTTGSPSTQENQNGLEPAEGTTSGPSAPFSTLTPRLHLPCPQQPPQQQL

A word on the IC50: it is the concentration at which inhibition is half-maximal. Turning to `CN(C)CCNCc1ccnc(CNCC(=O)N(C)C)c1` [Compound 15, 2-({[4-({[2-(dimethylamino)ethyl]-amino}methyl)pyridin-2-yl]methyl}amino)-N,N-dimethylacetamide], the IC50 in experiment [1] was 250 to 2500 nM; in experiment [2], 250 to 2500 nM; in experiment [3], more than 2500 nM; in experiment [4] it was more than 2500 nM.

Turning to `CN(C)CCCNCc1cc(/C=N/CCN(C)C)ccn1` [Compound 38, ({4-[{[2-(dimethylamino)ethyl]-imino}methyl]pyridin-2-yl}methyl)[3-(dimethylamino)-propyl]amine], the IC50 in experiment [1] is less than 250 nM; in experiment [2], 250 to 2500 nM; in experiment [3], more than 2500 nM; in experiment [4] it was more than 2500 nM.

Take `O=C(CNCc1cc(/C=N/C2CC2)ccn1)NC1CCN(Cc2ccccc2)C1` (stereo not drawn) [Compound 53, N-(1-benzylpyrrolidin-3-yl)-2-[({4-[N-cyclopropyl-carboximidoyl]pyridin-2-yl}methyl)amino]-acetamide]: the IC50 in experiment [1] is less than 250 nM; in experiment [2], 250 to 2500 nM; in experiment [3], less than 250 nM; in experiment [4], more than 2500 nM.

For `CN(C)C(=O)CNCc1cc(/C=N/CCC2CCCCC2)ccn1` [Compound 36, 2-[({4-[[(2-cyclohexylethyl)imino]-methyl]pyridin-2-yl}methyl)amino]-N,N-dimethylacetamide], the IC50 in experiment [1] was less than 250 nM; in experiment [2] it was 250 to 2500 nM; in experiment [3], 250 to 2500 nM; in experiment [4], more than 2500 nM.

`CCN(CC)CCCCNCc1cc(/C=N\CCC2CCCCC2)ccn1` [Compound 67, (2-cyclohexylethyl)-({[2-({[4-(diethylamino)-butyl]amino}methyl)pyridin-4-yl]methylidene})-amine]: the IC50 in experiment [1] was less than 250 nM; in experiment [2] it was 250 to 2500 nM; in experiment [3] it was more than 2500 nM; in experiment [4], 250 to 2500 nM.

Take `CN(C)CCNCc1cc(C=O)ccn1` [Compound 110, 2-({[2-(dimethylamino)-ethyl]amino}methyl)-pyridine-4-carbaldehyde]: the half-maximal inhibitory concentration (IC50) is less than 250 nM in experiment [1], more than 2500 nM in experiment [2], more than 2500 nM in experiment [3] and more than 2500 nM in experiment [4].

`O=Cc1ccnc(CNCC(=O)N2CCC(Cc3ccccc3)CC2)c1` [Compound 106, 2-({[2-(4-benzylpiperidin-1-yl)-2-oxoethyl]-amino}methyl)-pyridine-4-carbaldehyde]: the IC50 is more than 2500 nM in experiment [1], 250 to 2500 nM in experiment [2], 250 to 2500 nM in experiment [3] and more than 2500 nM in experiment [4].

`CN(C)C/C=C/CNCc1cc(C=O)ccn1` [Compound 98, 2-({[(2E)-4-(dimethylamino)but-2-en-1-yl]amino}-methyl)pyridine-4-carbaldehyde]: the IC50 was less than 250 nM in experiment [1], 250 to 2500 nM in experiment [2], more than 2500 nM in experiment [3] and 250 to 2500 nM in experiment [4].

As for `CCN(CC)CCCCNCc1cc(C2NCCN2C)ccn1` (stereo not drawn) [Compound 65, [4-(diethylamino)-butyl]({[4-(1-methylimidazolidin-2-yl)pyridin-2-yl]methyl})amine], the 50% inhibitory concentration (IC50) in experiment [1] is less than 250 nM; in experiment [2], 250 to 2500 nM; in experiment [3], more than 2500 nM; in experiment [4] it was more than 2500 nM.

Regarding `COc1ccccc1CN1CCC(NC(=O)CNCc2cc(CN)ccn2)CC1` [Compound 9, 2-({[4-(aminomethyl)pyridin-2-yl]methyl}amino)-N-{1-[(2-methoxyphenyl)methyl]-piperidin-4-yl}acetamide], the IC50 is less than 250 nM in experiment [1], more than 2500 nM in experiment [2], more than 2500 nM in experiment [3] and more than 2500 nM in experiment [4].

For `CCN(CC)CCCCN(Cc1cc(CNC(=O)C(F)(F)F)ccn1)C(=O)C(F)(F)F` [Compound 6, N-[4-(diethylamino)butyl]-- 2,2,2-trifluoro-N-({4-[(trifluoroacetamido)-methyl]pyridin-2-yl}methyl)acetamide], the 50% inhibitory concentration (IC50) was more than 2500 nM in experiment [1], more than 2500 nM in experiment [2], 250 to 2500 nM in experiment [3] and more than 2500 nM in experiment [4].

On to `CNC(C#N)c1ccnc(CNCCCN(C)C)c1` (stereo not drawn) [Compound 24, 2-[2-({[3-(dimethylamino)propyl]-amino}methyl)pyridin-4-yl]-2-(methylamino)-acetonitrile], for which the IC50 in experiment [1] is less than 250 nM; in experiment [2] it was 250 to 2500 nM; in experiment [3] it was more than 2500 nM; in experiment [4], more than 2500 nM.

In the case of `CC(C#N)NCc1ccnc(CNCCCN(C)C)c1` (stereo not drawn) [Compound 22, 2-({[2-({[3-(dimethylamino)propyl]-amino}methyl)pyridin-4-yl]methyl}amino)-propanenitrile], the half-maximal inhibitory concentration (IC50) in experiment [1] is less than 250 nM; in experiment [2] it was more than 2500 nM; in experiment [3] it was more than 2500 nM; in experiment [4], more than 2500 nM.

With `CN(C)CCC/N=C/c1ccnc(CNCCCN(C)C)c1` [Compound 37, [3-(dimethylamino)propyl]-({4-[{[3-(dimethylamino)propyl]-imino}methyl]pyridin-2-yl}methyl)amine], the IC50 in experiment [1] is less than 250 nM; in experiment [2], more than 2500 nM; in experiment [3], more than 2500 nM; in experiment [4], 250 to 2500 nM.

Regarding `CN(C)CCCCNCc1cc(C=O)ccn1` [Compound 108, 2-({[4-(dimethylamino)-butyl]amino}methyl)-pyridine-4-carbaldehyde], the IC50 in experiment [1] is less than 250 nM; in experiment [2], more than 2500 nM; in experiment [3] it was more than 2500 nM; in experiment [4], 250 to 2500 nM.

For `CN(C)C/C=C\CNCc1cc(C=O)ccn1` [Compound 99, 2-({[(2Z)-4-(dimethylamino)-but-2-en-1-yl]amino}methyl)-pyridine-4-carbaldehyde], the half-maximal inhibitory concentration (IC50) is less than 250 nM in experiment [1], more than 2500 nM in experiment [2], more than 2500 nM in experiment [3] and more than 2500 nM in experiment [4].

For the compound `CN(C)CCCCCNCc1cc(CN)ccn1` [Compound 8, [2-({[5-(dimethylamino)pentyl]-amino}methyl)pyridin-4-yl]methanamine], the IC50 was less than 250 nM in experiment [1], more than 2500 nM in experiment [2], more than 2500 nM in experiment [3] and 250 to 2500 nM in experiment [4].

Consider `CN(C)CC1CCC(CNCc2cc(/C=N/C3CC3)ccn2)CC1` (stereo not drawn) [Compound 46, N-[(2-{[({4-[(dimethylamino)-methyl]cyclohexyl}-methyl)amino]-methyl}pyridin-4-yl)methylidene]-cyclopropanamine], for which the half-maximal inhibitory concentration (IC50) was less than 250 nM in experiment [1], more than 2500 nM in experiment [2], more than 2500 nM in experiment [3] and 250 to 2500 nM in experiment [4].
